According to patent US8211901B2, “Naphthamide derivatives as multi-target protein kinase inhibitors and histone deacetylase inhibitors” (Shenzhen Chipscreen Biosciences Ltd., priority 2009, dated 2012):

Key:
human PDGFRβ = molecular target: T1, human PDGFRβ (Homo sapiens, UniProt P09619); experiment: PDGF dependent cell proliferation (MTS); assay type: cell-based; details: PDGFRβ NIH-3T3 cells, PDGF BB 50 ng/ml, 72 hours, serum-free medium; read-out: GI50 nM (PDGF ligand-dependent cell proliferation)
T1 construct: expressed in transfected cells
T1 sequence (P09619 33-1106): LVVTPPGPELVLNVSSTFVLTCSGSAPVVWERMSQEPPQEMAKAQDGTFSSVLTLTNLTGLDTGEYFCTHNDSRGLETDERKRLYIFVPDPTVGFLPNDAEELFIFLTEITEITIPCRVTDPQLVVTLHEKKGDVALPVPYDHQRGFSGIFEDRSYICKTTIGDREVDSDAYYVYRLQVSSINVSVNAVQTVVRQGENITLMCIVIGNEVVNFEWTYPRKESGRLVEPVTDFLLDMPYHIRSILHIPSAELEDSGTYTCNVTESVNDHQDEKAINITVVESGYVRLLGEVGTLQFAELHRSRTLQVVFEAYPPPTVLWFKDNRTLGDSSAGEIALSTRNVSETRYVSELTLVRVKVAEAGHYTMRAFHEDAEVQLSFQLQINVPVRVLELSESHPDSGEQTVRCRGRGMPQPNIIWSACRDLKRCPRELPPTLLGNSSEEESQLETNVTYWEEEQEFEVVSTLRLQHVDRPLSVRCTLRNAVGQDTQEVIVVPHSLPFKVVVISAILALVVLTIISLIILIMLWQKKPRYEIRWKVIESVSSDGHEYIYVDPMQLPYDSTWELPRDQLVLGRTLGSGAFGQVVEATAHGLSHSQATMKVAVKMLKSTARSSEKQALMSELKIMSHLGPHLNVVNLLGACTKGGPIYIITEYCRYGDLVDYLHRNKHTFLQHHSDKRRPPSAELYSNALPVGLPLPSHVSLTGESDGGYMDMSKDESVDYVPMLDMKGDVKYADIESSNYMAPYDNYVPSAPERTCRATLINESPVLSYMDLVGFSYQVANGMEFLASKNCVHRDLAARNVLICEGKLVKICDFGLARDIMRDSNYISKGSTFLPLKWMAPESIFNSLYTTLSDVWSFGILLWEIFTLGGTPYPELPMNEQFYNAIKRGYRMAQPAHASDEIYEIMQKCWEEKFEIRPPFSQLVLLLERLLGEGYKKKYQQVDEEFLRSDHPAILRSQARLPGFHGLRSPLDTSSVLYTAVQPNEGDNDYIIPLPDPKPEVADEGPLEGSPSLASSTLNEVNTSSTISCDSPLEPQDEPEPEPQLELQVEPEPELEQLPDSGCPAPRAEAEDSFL
Procedure: PDGF Dependent Cell Proliferation:
NIH-3T3 mouse fibroblasts cell line engineered to stably express human PDGFIRβ was constructed and used to evaluate PDGF dependent cell proliferation. PDGFRβ NIH-3T3 cells were plated into 96-well plates at 5,000 per well and incubated with serum-free medium for 24 hours. Compounds and PDGF BB (50 ng/ml) were added and incubated for 72 hours in serum-free medium. The effects on proliferation were determined by addition of MTS reagent (Promega) according to the instruction, incubation for 2 hours at 37° C. in CO2 incubator, and record the absorbance at 490 nm using an ELISA plate reader.

HUVEC cells = experiment: VEGF dependent cell proliferation (MTS); assay type: cell-based; details: Homo sapiens, VEGF 165 50 ng/ml, 72 hours, serum-free medium, read-out: GI50 nM (VEGF ligand-dependent cell proliferation)
Procedure: VEGF Dependent Cell Proliferation:
HUVEC cells were plated into 96-well plates at 6,000 per well and incubated with serum-free medium for 2 hours. Compounds and VEGF 165 (50 ng/ml) were added and incubated for 72 hours in serum-free medium. The effects on proliferation were determined by addition of MTS reagent (Promega) according to the instruction, incubation for 2 hours at 37° C. in CO2 incubator, and record the absorbance at 490 nm using an ELISA plate reader.

[1] = test system: total HDAC enzyme (HeLa extract); experiment: In vitro inhibition of total HDAC enzyme activity (HDAC Fluorimetric Assay/Drug Discovery Kit); assay type: biochemical
Procedure: Measurement of In Vitro Inhibition of Total HDAC Enzyme Activity:
The in vitro inhibition of total HDAC enzyme was determined by HDAC Fluorimetric Assay/Drug Discovery Kit (BIOMOL) according to manufacture's instruction. • 1. Add Assay buffer, diluted trichostatin A or test inhibitor to appropriate wells of the microtiter plate. Following table lists examples of various assay types and the additions required for each test.
• 2. Add diluted HeLa extract or other HDAC sample to all wells except those that are to be “No Enzyme Controls” (Blank). • 3. Allow diluted Fluor de Lys™ Substrate and the samples in the microtiter plate to equilibrate to assay temperature (25° C.). • 4. Initiate HDAC reactions by adding diluted substrate (25 μl) to each well and mixing thoroughly. • 5. Allow HDAC reactions to proceed for desired length of time and then stop them by addition of Fluor de Lys™ Developer (50 μl). Incubate plate at room temperature (25° C.) for 10-15 min. • 6. Read samples in a microtiter-plate reading fluorimeter capable of excitation at a wavelength in the range 350-380 nm and detection of emitted light in the range 440-460 nm. Measurement of In Vivo Inhibition of HDAC Subtype Activity: […]

Class I HDAC = experiment: P21 reporter gene assay in HeLa cells; assay type: cell-based; details: 24 hours
Procedure: HDAC subtype selectivity inhibition assay of tested compounds was carried out by several reporter gene assays experiments. Briefly, HeLa cells were seeded in 96-well plates the day before transfection to give a confluence of 50-80%. Cells were transfected with one of reporter gene plasmid containing a promoter sequence or response element upstream of a luciferase gene construct using FuGene6 transfection reagent according to the manufacturer's instruction (Roche). The promoters or response elements including p21-promoter was fused upstream to the luciferase gene reporter construct. For normalizing the transfection efficiency, a GFP expression plasmid was cotransfected. Cells were allowed to express protein for 24 hours followed by addition of individual compounds or the vehicle (DMSO). 24 hours later the cells were harvested, and the luciferase assay and GFP assay were performed using corresponding assay kits according to the manufacturer's instructions (Promega).

A-498 = experiment: Tumor cell proliferation (MTS), A-498; assay type: cell-based; details: Homo sapiens, A498; 72 hours, complete medium
Procedure: (§1) Measurement of In Vivo Cell Proliferation:
(§2) Tumor cells were trypsinized and plated into 96-well plates at 3,000 per well and incubated in complete medium with 10% FBS for 24 hours. Compounds were added over a final concentration range of 100 μmol/L to 100 nmol/L in 0.1% DMSO and incubated for 72 hours in complete medium. The effects on proliferation were determined by addition of MTS reagent (Promega) according to the instruction, incubation for 2 hours at 37° C. in CO2 incubator, and record the absorbance at 490 nm using an ELISA plate reader.

A549 = experiment: Tumor cell proliferation (MTS), A549; assay type: cell-based; details: Homo sapiens, 72 hours, complete medium
Procedure: as §1, §2
(§3) Human Cell Lines are Listed Below:
A549: Non small cell lung carcinoma

Bel-7402 = experiment: Tumor cell proliferation (MTS), Bel-7402; assay type: cell-based; details: Homo sapiens, 72 hours, complete medium
Procedure: as §1, §2, §3
Bel-7402: Hepatocellular carcinoma

HCT-8 = experiment: Tumor cell proliferation (MTS), HCT-8; assay type: cell-based; details: Homo sapiens, 72 hours, complete medium
Procedure: as §1, §2, §3
HCT-8: Ileocecal colorectal adenocarcinoma

MCF-7 = experiment: Tumor cell proliferation (MTS), MCF-7; assay type: cell-based; details: Homo sapiens, MCF7; 72 hours, complete medium
Procedure: as §1, §2, §3
MCF-7: Mammary gland adenocarcinoma

[2] = Body weight in HCT-8 xenograft study (Example 55); assay type: in vivo, nu/nu mice
Procedure: The antitumor activity of compound 33 and compound 37 were measured in human HCT-8 colon cancer xenograft model. The female nu/nu mice of 18˜20 g were fed by normal diet for 3 days. Then the cultured HCT-8 human colon cancer cells were implanted into the armpit of 50 mice. […] One group was treated with vehicle. One group was treated with sutent, the positive control drug. Two groups were treated with compound 33. The other two groups were treated with compound 37. Compound 33 was administered twice a day with an interval of 6 hours. Other drugs and vehicle were administered once a day. Each group was dosed orally for 20 days. Tumor volumes as established by caliper measurements were recorded twice per week, along with body weights. At the end of study, the mice were killed, and tumors were weighed. The tumor growth inhibition of each group was calculated using the formula {[(the average tumor weight of vehicle group)−(the average tumor weight of drug group)]/(the average tumor weight of vehicle group)}×100%.

[3] = 30 × 2 mg/kg orally twice a day with an interval of 6 hours for 20 days
[4] = 60 × 2 mg/kg orally twice a day with an interval of 6 hours for 20 days

Row | GI50 (human PDGFRβ) [nM] | % inhibition of total HDAC enzyme activity at 30 μM [1] [%] | Class I HDAC (P21 reporter assay) Fold Induction at 10 μM (Class I HDAC) [Fold] | GI50 (A-498) [µM] | GI50 (A549) [µM] | GI50 (Bel-7402) [µM] | GI50 (HCT-8) [µM] | GI50 (MCF-7) [µM] | SMILES | GI50 (HUVEC cells) [nM] | Body weight (g) end [2, 3] [g] | Body weight (g) start [2, 3] [g] | Body weight (g) end [2, 4] [g] | Body weight (g) start [2, 4] [g]
1 | 46 | 10.1 | 1.6 | 9.5 | 17.3 | 30 | 6.6 | 10.2 | COc1ccc2c(Oc3ccc4c(C(=O)Nc5ccccc5N)cccc4c3)ccnc2c1 [Example 31, N-(2-aminophenyl)-6-(7-methoxyquinolin-4-yloxy)-1-naphthamide] | 5 |  |  |  | 
2 | 300 | 39.1 | 2.8 | 1.9 | 2.1 | 2.8 | 1.5 | 2 | COc1ccc2c(Oc3ccc4c(C(=O)NCc5ccc(C(=O)Nc6ccccc6N)cc5)cccc4c3)ccnc2c1 [Example 33, N-(4-((2-aminophenyl)carbamoyl)benzyl)-6-(7-methoxyquinolin-4-yloxy)-1-naphthamide] | 8 | 22.6 ± 1.6 | 21.1 ± 1.2 | 19.0 ± 1.8 | 20.1 ± 0.9
